Assay results: patent US20240245856A1, “Electromechanical Devices for the Burst Release of Indefinitely Stable Dry Powder Drugs” (Massachusetts Institute of Technology, priority 2023, published 2024)
Like-named read-outs stand apart in the source and are kept apart here.

Legend:
healthy C57/BL6J mice = conditions: for time after release at which increase in BG is evident / time after release at which increase in HR is evident: 1 mg pill, 5%-95% Epinephrine-Lactose, subcutaneous, mice
Protocol: To test this, studies with epinephrine, a naturally occurring circulating neurotransmitter hormone produced by the adrenal medulla, were performed and used as emergency medication in the treatment of anaphylaxis, cardiac arrest, asthma, and hypotension. Epinephrine release targets adrenergic receptors is accompanied by increases in heart rate (HR).
In vivo epinephrine release involved studies on anesthetized adult, male, healthy C57/BL6J mice. Mice were implanted with emergency rescue devices containing epinephrine doses of 1.4 mg/kg via the surgical procedures described above and allowed to recover for a 3-day period. On day 3, mice were carefully anesthetized via the flow of 1% isoflurane, and hair around the dorsal neck region was removed via the application of a depilatory cream (e.g., Nair). A collar-mounted optical probe (e.g., a MouseOx, Starr Life Science, Oakmont, PA) was then used to track heart rate. Additional biomarkers measured by the probe included oxygen saturation (SpO2), pulse-width distension (a measure of blood flow) and breath rate. Animals were monitored until their heart rate reached steady values of 380-400 bpm. A primary transmitter antenna was then brought into close proximity for 2-5 minutes to induce wireless release. Anesthetized animals were then monitored via optical probe measurements for 30 minutes, followed by euthanasia and explantation to evaluate opening and drug dissolution.

[1] = In vivo IVIS fluorescence imaging of release from subcutaneously implanted device; design: species or system mice; conditions: for biodistribution (IVIS imaging of major organs): organs imaged 40 minutes after subcutaneous release
Protocol: Imaging studies with fluorescently labeled lyophilized insulin-dye conjugates (Ins-Cy7) validate burst release in vivo, over timescales of about 10 minutes. Devices (e.g., device 100) were implanted in subcutaneous sites, with release apertures 171 facing into muscle beds (the complete surgical implantation procedure is disclosed below).
An equivalent set of studies with glucagon conjugated with cy7 (GCG-cy7) reveal similar release profiles as illustrated in FIG. 5A with strong fluorescence visible within the first 20 minutes following release. […] As shown herein, dry-powder injection directly into subcutaneous sites may function as a mechanism to both maintain long-term drug stability and ensure rapid action following release.
Animals were anesthetized via isoflurane and placed in an in vivo imaging system (IVIS). Baseline fluorescent measurements tuned to emission peaks of cy7 (exposure time 3 seconds, 640 nm<wavelength<840 nm) established pre-release fluorescence profiles. A primary antenna placed in close proximity to the device for about 1 minute induced wireless drug release. Sequential imaging following release at intervals of about 5 minutes then allowed for imaging of fluorescence signals resulting from drug dissolution and diffusion. […]

[2] = cited from earlier work
[3] = HPLC drug dissolution testing of glucagon pills in PBS; format: physicochemical; conditions: 37° C., across a range of loading fractions
Description: Capabilities in closed-loop burst release enabled by wireless communication between commercially available biosensors and emergency rescue devices represent a feature of this technology. One example is the combination of glucagon release with CGM technology for fully closed-loop glucose-responsive hypoglycemic rescue during periods of sleep or hypoglycemia unawareness and in pediatric patients who are unable to self-administer glucagon. […] Benchtop testing in a physiological mimic glucose solution was also performed. […]
Several known concentrations of glucagon (x, unit μM) were tested with the HPLC and the corresponding absorbance peak areas (y, A.U.) were measured. […] This equation yields glucagon concentrations of testing solutions at different time points via measurements of absorbance peak areas. […]
HPLC was performed under the following conditions using an Agilent InfinityLab Poroshell 120 (EC-C18, 4.6 mm×100 mm, 2.7 μm particle size) at 25° C., using 0.1% formic acid in water (solvent A) and acetonitrile (solvent B) at 0.6 ml/min. […] Glucagon UV absorption was monitored at 280 nm with retention time (Rt)=19.2 min.

[4] = system: blood glucose concentrations; conditions: administration for acute hypoglycemia; cited from earlier work
[5] = system: C57/BL6 mice with chemically induced diabetes via Streptozotocin (STZ); assay: Post-fasting glucagon release in diabetic mice (blood glucose); format: in vivo; conditions: glucagon release studies in diabetic mice
Protocol: In an initial set of experiments (results shown in FIG. 5C) mice were fasted to induce mild hypoglycemia baseline BG 113±1.9 mg dl^−1). Wireless release is triggered at time t=0 minutes by placing the awake, freely moving mice in a modified enclosure capable of providing wireless power at 13.56 MHz. Successive measurements then reveal a rapid rise in BG measurements relative to baselines, with a peak value ([…]) occurring at tmax=15 minutes following release. […] Following release, explantation confirmed complete opening and dissolution of the pills (FIG. 22).
0.5 μl volumes of blood were collected via tail-pricks with 25-27G and measured with a commercial handheld blood glucose meter (e.g., a Clarity, BG1000). The upper limit of measurements is 600 mg/dl on these systems and values above this were recorded as 600 mg/dl for analysis. Non-fasting values were recorded for 7-10 days following implantation, after which BG values were recorded following a 2.5 hour fast. Mice were weighed before and after fasting periods. Measurements in experimental groups (O2, Non O2 controls) were recorded in triplicate to account for any variability in readings and averaged.
(i) Post-fasting studies: These studies were performed […] after device implantation in STZ-induced diabetic BL6 mice. […] BG values recorded immediately following release served as t=0 minutes measurements. […]

[6] = 30 minutes after release, 1 mg pill 5%-95% Epinephrine-Lactose, n=3

## CNC[C@H](O)c1ccc(O)c(O)c1 [Epinephrine]
Healthy C57/BL6J mice
  time after release at which increase in BG is evident: ≤ 10 min
  time after release at which increase in HR is evident: ≤ 10 min
Healthy C57/BL6J mice; listed as epinephrine
  time after release at which increase in BG is evident: ≤ 5 min
  time after release at which increase in HR is evident: ≤ 5 min
Healthy C57/BL6J mice; [6]
  ΔBG: 66 ± 23 mg/dL
  ΔHR: 140±33 bpm
Healthy C57/BL6J mice; pills at 0.3 mg/kg and 1.5 mg/kg versus sham implants
  correlation of other biomarkers (heart rate, SpO2, pulse-width distension) with release: weak correlation

## GCG-cy7: glucagon conjugated with cy7; 1-mg glucagon-lactose (4%-96% by weight) pill labeled with fluorescent dye
[1]
  biodistribution (IVIS imaging of major organs): confinement to liver site
[1]; release 2 days after subcutaneous implantation
  time after release at which strong fluorescence is visible: ≤ 20 min

## Ins-Cy7: fluorescently labeled lyophilized insulin-dye conjugates; 1 mg Insulin-cy7-Lactose (4%-96% by weight) pills
[1]; implanted sealed device, until release 7 days after implantation
  fluorescence before wireless release: no detectable fluorescence
[1]
  biodistribution (IVIS imaging of major organs): confined to the liver
[1]; subcutaneous device, mice, IVIS
  timescale of burst release in vivo: about 10 minutes
[1]; subcutaneous site, release on day 7
  time after release at which fluorescence is detectable: ≤ 5 min
[1]; within the first 15 minutes following release, n=3 mice
  increase in local fluorescence intensity (ROI): roughly tenfold

## glucagon
[2]
  stability in solution: < 1 days
[3]
  dissolution of dry powder drug (HPLC): rapid dissolution
[4]
  time to increase in blood glucose concentrations: < 10 min
[5]
  time to increase in blood glucose after release: < 10 min
